In ChEMBL document CHEMBL4265887 (Bioorg Med Chem Lett, 2018):
≈ marks a conversion by molar mass, not a printed value.

What was measured:
[1] = Solubility of the compound in phosphate buffer of pH 7.4 after 24 hrs by RP-HPLC analysis; assay type: physicochemical; details: phosphate buffer, pH 7.4
HCT-116 [2] = assay: Synergistic cytotoxicity against human HCT116 cells assessed as reduction in cell viability by measuring combination index at 1:1 compound to GSK2126458 ratio after 48 hrs by MTT assay; assay type: functional
HCT-116 [3] = assay: Synergistic cytotoxicity against human HCT116 cells assessed as reduction in cell viability by measuring combination index at 1:1 compound to erlotinib ratio after 48 hrs by MTT assay; assay type: functional
HCT-116 [4] = assay: Synergistic cytotoxicity against human HCT116 cells assessed as reduction in cell viability by measuring combination index at 1:1 compound to trichostatin A ratio after 48 hrs by MTT assay; assay type: functional
HCT-116 [5] = assay: Synergistic cytotoxicity against human HCT116 cells assessed as reduction in cell viability by measuring combination index at 1:1 compound to crizotinib ratio after 48 hrs by MTT assay; assay type: functional
HCT-116 [6] = assay: Synergistic cytotoxicity against human HCT116 cells assessed as reduction in cell viability by measuring combination index at 1:1 compound to lonafarnib ratio after 48 hrs by MTT assay; assay type: functional
HT-29 [7] = assay: Synergistic cytotoxicity against human HT-29 cells assessed as reduction in cell viability by measuring combination index at 1:1 compound to erlotinib ratio after 48 hrs by MTT assay; assay type: functional
HT-29 [8] = assay: Synergistic cytotoxicity against human HT-29 cells assessed as reduction in cell viability by measuring combination index at 1:1 compound to trichostatin A ratio after 48 hrs by MTT assay; assay type: functional
[9] = biological target: Tyrosine-protein kinase receptor UFO (Homo sapiens) (UniProt P30530); assay: Inhibition of AXL (unknown origin) at 10 uM
[10] = biological target: Vascular endothelial growth factor receptor 2 (Homo sapiens) (UniProt P35968); assay: Inhibition of VEGFR2 (unknown origin) at 10 uM
[11] = biological target: Tyrosine-protein kinase JAK3 (Homo sapiens) (UniProt P52333); assay: Inhibition of JAK3 (unknown origin) at 10 uM
[12] = biological target: Proto-oncogene tyrosine-protein kinase receptor Ret (Homo sapiens) (UniProt P07949); assay: Inhibition of RET (unknown origin) at 10 uM
Sequence of Proto-oncogene tyrosine-protein kinase receptor Ret (Homo sapiens) (P07949 whole entry): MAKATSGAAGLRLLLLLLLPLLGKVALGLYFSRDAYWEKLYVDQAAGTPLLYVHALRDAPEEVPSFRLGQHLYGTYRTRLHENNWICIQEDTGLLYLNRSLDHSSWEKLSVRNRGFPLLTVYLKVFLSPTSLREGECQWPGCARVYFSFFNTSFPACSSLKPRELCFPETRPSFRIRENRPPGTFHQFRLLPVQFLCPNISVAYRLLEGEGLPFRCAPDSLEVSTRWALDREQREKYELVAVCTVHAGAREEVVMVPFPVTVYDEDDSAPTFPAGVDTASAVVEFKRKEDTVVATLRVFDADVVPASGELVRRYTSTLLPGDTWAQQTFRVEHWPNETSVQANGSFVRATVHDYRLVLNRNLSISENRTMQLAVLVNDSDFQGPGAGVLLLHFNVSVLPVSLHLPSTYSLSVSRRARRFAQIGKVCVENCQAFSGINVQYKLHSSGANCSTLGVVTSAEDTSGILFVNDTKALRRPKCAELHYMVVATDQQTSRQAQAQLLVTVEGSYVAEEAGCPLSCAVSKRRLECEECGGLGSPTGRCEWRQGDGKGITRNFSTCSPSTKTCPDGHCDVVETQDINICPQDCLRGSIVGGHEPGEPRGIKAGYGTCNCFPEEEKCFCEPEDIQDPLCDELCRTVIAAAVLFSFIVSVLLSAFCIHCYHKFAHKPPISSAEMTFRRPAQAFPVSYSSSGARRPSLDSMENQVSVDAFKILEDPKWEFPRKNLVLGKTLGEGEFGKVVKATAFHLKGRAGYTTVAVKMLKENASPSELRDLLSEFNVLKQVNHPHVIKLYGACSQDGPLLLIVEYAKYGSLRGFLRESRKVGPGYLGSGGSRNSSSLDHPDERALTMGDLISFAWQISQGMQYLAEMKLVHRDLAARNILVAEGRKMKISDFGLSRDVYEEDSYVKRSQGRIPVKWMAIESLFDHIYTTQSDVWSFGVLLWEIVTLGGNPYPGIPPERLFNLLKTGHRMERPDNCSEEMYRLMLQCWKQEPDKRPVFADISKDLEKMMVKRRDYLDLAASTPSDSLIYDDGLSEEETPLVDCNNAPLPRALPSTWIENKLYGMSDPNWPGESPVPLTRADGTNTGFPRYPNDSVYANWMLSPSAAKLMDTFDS

[13] = biological target: Platelet-derived growth factor receptor beta (Homo sapiens) (UniProt P09619); assay: Inhibition of PDGFRbeta (unknown origin) at 10 uM
Sequence of Platelet-derived growth factor receptor beta (Homo sapiens) (P09619 whole entry): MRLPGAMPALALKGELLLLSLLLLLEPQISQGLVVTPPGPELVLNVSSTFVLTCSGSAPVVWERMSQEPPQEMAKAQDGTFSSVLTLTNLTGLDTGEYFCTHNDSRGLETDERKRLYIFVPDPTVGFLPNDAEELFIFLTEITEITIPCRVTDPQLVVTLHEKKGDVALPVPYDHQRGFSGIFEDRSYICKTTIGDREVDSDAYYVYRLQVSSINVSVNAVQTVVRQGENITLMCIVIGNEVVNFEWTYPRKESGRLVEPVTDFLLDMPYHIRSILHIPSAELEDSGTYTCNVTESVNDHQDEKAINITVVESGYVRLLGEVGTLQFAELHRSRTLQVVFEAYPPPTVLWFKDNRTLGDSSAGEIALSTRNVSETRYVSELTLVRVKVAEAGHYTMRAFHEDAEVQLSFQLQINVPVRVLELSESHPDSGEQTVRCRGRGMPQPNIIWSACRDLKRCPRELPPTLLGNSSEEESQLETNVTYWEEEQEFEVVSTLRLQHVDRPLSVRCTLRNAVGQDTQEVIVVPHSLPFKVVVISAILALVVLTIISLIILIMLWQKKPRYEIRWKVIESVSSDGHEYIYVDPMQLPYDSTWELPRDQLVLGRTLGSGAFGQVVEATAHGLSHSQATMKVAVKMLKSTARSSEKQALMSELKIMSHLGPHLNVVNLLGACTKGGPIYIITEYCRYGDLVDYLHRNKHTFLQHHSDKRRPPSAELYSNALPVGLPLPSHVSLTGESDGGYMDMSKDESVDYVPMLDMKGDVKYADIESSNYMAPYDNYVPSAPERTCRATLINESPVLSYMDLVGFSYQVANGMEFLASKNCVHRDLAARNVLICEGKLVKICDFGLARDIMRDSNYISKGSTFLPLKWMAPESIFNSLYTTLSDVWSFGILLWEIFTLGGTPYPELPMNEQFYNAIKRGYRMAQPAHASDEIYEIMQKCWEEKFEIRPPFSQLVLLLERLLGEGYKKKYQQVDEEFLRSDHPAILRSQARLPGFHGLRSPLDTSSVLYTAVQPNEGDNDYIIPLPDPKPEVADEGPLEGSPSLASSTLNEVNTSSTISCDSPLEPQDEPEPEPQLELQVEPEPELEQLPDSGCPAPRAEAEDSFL

[14] = biological target: Serine/threonine-protein kinase PLK3 (Homo sapiens) (UniProt Q9H4B4); assay: Inhibition of PLK3 (unknown origin) at 10 uM
Sequence of Serine/threonine-protein kinase PLK3 (Homo sapiens) (Q9H4B4 whole entry, looked up): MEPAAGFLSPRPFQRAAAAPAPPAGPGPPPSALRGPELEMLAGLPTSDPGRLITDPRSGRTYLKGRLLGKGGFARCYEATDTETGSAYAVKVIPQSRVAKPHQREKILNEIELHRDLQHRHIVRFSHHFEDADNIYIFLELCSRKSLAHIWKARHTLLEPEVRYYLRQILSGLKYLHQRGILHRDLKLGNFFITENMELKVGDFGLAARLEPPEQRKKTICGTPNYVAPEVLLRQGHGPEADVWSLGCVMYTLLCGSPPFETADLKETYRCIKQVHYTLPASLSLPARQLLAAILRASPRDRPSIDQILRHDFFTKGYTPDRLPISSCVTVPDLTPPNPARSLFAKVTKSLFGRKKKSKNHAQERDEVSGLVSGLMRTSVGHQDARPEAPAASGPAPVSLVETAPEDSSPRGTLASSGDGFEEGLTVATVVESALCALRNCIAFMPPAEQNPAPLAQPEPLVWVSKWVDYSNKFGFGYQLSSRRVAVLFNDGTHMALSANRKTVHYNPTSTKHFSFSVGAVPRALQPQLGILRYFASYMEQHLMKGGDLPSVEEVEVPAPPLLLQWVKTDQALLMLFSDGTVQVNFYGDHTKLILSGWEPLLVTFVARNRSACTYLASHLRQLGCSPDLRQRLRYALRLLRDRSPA

[15] = biological target: Serine/threonine-protein kinase PAK 1 (Homo sapiens) (UniProt Q13153); assay: Inhibition of PAK1 (unknown origin) at 10 uM
Sequence of Serine/threonine-protein kinase PAK 1 (Homo sapiens) (Q13153 whole entry): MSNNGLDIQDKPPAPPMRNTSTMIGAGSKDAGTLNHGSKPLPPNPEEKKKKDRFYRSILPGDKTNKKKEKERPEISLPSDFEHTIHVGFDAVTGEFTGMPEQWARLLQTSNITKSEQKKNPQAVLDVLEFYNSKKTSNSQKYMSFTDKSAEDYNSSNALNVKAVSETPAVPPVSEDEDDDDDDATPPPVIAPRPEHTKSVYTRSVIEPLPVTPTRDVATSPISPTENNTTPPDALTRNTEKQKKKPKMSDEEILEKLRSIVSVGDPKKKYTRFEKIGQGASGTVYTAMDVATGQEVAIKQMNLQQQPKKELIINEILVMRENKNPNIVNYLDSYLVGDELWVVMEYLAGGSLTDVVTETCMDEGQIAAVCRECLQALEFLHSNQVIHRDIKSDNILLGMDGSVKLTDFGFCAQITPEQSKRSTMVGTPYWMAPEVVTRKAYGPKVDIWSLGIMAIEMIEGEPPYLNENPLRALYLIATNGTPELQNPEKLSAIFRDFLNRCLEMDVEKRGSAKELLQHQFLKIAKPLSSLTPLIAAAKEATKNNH

[16] = biological target: Tyrosine-protein kinase SYK (Homo sapiens) (UniProt P43405); assay: Inhibition of SYK (unknown origin) at 10 uM
[17] = biological target: RAC-alpha serine/threonine-protein kinase (Homo sapiens) (UniProt P31749); assay: Inhibition of AKT1 (unknown origin) at 10 uM
Sequence of RAC-alpha serine/threonine-protein kinase (Homo sapiens) (P31749 whole entry): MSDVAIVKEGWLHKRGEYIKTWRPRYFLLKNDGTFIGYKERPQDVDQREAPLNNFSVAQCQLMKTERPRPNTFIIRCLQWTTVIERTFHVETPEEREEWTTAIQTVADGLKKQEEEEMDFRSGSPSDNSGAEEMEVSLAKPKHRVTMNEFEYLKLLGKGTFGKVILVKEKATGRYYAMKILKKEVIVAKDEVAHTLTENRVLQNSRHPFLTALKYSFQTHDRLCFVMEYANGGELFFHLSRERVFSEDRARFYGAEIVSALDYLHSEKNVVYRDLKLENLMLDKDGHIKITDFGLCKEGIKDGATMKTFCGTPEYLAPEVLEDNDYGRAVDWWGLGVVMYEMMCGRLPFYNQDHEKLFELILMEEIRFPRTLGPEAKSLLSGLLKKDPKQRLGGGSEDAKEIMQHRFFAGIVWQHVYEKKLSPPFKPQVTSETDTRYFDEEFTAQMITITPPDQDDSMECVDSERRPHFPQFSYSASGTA

[18] = biological target: Death-associated protein kinase 3 (Homo sapiens) (UniProt O43293); assay: Inhibition of ZIPK (unknown origin) at 10 uM
Sequence of Death-associated protein kinase 3 (Homo sapiens) (O43293 whole entry, looked up): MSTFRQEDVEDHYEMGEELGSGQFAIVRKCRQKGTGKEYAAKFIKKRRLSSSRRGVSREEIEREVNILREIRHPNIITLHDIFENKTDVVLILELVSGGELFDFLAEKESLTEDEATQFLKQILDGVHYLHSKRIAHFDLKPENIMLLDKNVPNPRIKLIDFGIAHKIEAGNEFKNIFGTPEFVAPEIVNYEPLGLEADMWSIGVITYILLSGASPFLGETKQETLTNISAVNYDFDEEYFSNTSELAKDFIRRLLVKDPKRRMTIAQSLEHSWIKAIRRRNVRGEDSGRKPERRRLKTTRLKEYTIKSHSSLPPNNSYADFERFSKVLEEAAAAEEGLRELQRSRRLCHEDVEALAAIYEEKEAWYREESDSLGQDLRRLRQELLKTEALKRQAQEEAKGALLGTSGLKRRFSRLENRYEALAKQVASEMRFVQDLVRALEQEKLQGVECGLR

[19] = biological target: Mitogen-activated protein kinase 8 (Homo sapiens) (UniProt P45983); assay: Inhibition of JNK1 (unknown origin) at 10 uM
Sequence of Mitogen-activated protein kinase 8 (Homo sapiens) (P45983 whole entry): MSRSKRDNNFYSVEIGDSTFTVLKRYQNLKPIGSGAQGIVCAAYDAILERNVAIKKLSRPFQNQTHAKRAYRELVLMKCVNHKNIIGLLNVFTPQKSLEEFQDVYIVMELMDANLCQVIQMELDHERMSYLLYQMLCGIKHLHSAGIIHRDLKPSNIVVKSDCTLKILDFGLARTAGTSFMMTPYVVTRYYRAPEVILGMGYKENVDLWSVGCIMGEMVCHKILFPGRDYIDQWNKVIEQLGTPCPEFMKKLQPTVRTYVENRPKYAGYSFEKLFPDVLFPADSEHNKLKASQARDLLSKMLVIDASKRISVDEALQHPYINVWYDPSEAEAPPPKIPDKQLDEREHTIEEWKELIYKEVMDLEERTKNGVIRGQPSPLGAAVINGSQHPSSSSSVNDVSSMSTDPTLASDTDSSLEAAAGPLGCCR

[20] = biological target: Serine/threonine-protein kinase mTOR (Homo sapiens) (UniProt P42345); assay: Inhibition of mTOR (unknown origin) at 10 uM

Question: Which solubility at 24 h [1] does the source give for CNC(=O)Nc1sc2c(C(C)C)cc(NS(=O)(=O)c3cccs3)cc2c1C(N)=O here?
Answer: 1.9 µM (≈ 0.86 µg/mL)

Question: And the CI (HCT-116 [2])?
Answer: 1.042

Question: What about the CI (HCT-116 [3]) of the same compound?
Answer: 0.25

Question: What about the CI (HCT-116 [4]) of the same compound?
Answer: 0.195

Question: And the CI (HCT-116 [5])?
Answer: 0.136

Question: And the CI (HCT-116 [6])?
Answer: 0.755

Question: What about the CI (HT-29 [7]) of the same compound?
Answer: 0.075

Question: What about the CI (HT-29 [8]) of the same compound?
Answer: 0.185

Question: What about the inhibition [9] of the same compound?
Answer: 112%

Question: And the inhibition [10]?
Answer: 109%

Question: What about the inhibition [11] of the same compound?
Answer: 99.6%

Question: What about the inhibition [12] of the same compound?
Answer: 98.4%

Question: What about the inhibition [13] of the same compound?
Answer: 88%

Question: And the inhibition [14]?
Answer: 78.7%

Question: And the inhibition [15]?
Answer: 26.7%

Question: What about the inhibition [16] of the same compound?
Answer: 16.6%

Question: And the inhibition [17]?
Answer: 13.6%

Question: What about the inhibition [18] of the same compound?
Answer: 12.9%

Question: What about the inhibition [19] of the same compound?
Answer: 12.2%

Question: What about the inhibition [20] of the same compound?
Answer: 8.62%
